These are literature values, as cited in US20140213605A1, “METHODS FOR TREATING EYE DISORDERS USING OPIOID RECEPTOR ANTAGONISTS” (priority 2013, published 2014).

For data set [1] the following is noted: in vivo.

`Oc1ccc2c3c1O[C@H]1[C@H](O)CC[C@@]4(O)[C@@H](C2)N(CC2CC2)CC[C@]314` [6-β-naltrexol]: in data set [1], the “Bound to plasma protein” value is listed as “Approximately 20%”.

With `O=C1CC[C@@]2(O)[C@H]3Cc4ccc(O)c5c4[C@@]2(CCN3CC2CC2)[C@H]1O5` [Naltrexone], in the data set on rat cornea (systemically administered), the “Effect on incidence of re-epithelialization of the rat cornea” value was “markedly influenced the incidence of re-epithelialization”. In addition, the “Effect on re-epithelialization of the rat cornea” value with rat cornea (topical application in sterile water) is recorded as “not effective”. For the same compound, the Excreted unchanged entry in data set [1] was “Less than 1%”.
